This is an account of results in patent US20070270421A1, “Novel pyridine Derivative and Pyrimidine Derivative (1)” (priority 2004, published 2007).

The test system of assay [1] is Human gastric cancer cells (MKN-45). Description: Inhibitory activity against the proliferation of human gastric cancer cells (MKN-45). It is filed as cell-based. The settings on record: 72 h, MKN-45, 1% FBS RPMI1640, 3 days, Cell Counting Kit-8, read-out: IC50 (concentration necessary to inhibit the cell proliferation by 50%). Here is the method: Human gastric cancer cells (MKN-45) were suspended in a 1% FBS-containing RPMI1640 medium (purchased from Sigma). The cell suspension (1×10^4 cells/ml) was added in a 96-well plate for cell culture (purchased from NUNC, Production No. 167008) at 0.1 ml/well, and then cultured in a 5% CO2 incubator (37° C.) overnight. After the culture, each well was supplied with 0.1 ml of a test substance diluted with a 1% FBS-containing RPMI1640 medium, followed by culturing in a 5% CO2 incubator (37° C.) for 3 days. After the culture, each well was supplied with 10 μl of Cell Counting Kit-8 (purchased from DOJINDO, Production No. 343-07623), followed by incubation in a 5% CO2 incubator (37° C.) for about 1.5 hrs. After the incubation, using the Plate Reader MTP-500 (Corona Electric), the absorbance of each well was determined at a measurement wavelength of 450 nm and a reference wavelength of 660 nm. The ratio (%) of absorbance of each well supplied with a test substance to absorbance of the well supplied with no test substance was calculated, and the ratio was used to calculate the concentration (IC50) of the test substance necessary to inhibit the cell proliferation by 50%.
For orientation: Formazan colour is commonly taken as a measure of viable cells.

In the next assay the target is T1, HGFR autophosphorylation (Homo sapiens, UniProt P08581).
T1 construct: endogenous in cells; host or cells: MKN-45 human gastric cancer cells
T1 sequence (P08581 25-1390): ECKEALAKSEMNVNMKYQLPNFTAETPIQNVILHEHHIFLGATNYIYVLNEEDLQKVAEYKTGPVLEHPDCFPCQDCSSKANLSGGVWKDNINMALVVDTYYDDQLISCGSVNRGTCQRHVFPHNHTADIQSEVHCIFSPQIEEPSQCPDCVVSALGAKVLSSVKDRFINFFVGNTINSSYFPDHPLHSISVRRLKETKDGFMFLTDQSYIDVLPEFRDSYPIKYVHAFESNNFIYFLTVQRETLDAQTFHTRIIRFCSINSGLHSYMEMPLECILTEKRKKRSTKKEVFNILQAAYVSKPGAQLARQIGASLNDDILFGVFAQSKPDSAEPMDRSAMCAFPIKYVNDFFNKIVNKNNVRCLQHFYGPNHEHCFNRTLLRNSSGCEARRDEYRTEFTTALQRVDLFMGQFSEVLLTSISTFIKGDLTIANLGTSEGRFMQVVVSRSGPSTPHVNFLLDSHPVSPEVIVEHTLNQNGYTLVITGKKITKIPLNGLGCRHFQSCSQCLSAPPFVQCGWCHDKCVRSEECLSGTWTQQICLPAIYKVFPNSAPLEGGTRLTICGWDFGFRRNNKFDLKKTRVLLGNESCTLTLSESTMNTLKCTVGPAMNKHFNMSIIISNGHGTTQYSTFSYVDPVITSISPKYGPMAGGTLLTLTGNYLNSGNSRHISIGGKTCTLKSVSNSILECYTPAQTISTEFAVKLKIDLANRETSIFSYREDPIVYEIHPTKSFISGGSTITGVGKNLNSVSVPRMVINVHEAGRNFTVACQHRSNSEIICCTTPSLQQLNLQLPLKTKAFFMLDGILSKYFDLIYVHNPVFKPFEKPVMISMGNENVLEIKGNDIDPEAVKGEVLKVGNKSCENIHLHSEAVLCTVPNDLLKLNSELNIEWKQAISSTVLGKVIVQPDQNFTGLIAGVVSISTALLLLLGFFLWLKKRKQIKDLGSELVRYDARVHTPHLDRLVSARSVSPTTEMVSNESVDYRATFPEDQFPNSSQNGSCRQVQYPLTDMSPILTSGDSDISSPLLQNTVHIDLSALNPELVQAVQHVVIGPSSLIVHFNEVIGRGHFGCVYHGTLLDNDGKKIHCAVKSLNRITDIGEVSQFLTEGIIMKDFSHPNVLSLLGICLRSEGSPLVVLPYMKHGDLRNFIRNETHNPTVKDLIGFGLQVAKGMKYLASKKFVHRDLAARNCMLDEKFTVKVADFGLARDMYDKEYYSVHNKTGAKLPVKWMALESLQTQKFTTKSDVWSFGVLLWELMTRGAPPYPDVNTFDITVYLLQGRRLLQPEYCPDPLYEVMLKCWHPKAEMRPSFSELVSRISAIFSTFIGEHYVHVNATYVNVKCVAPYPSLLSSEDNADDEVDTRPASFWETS
Description: Inhibitory activity against the HGFR autophosphorylation using ELISA. The settings on record: MKN-45 cells, 1 hr treatment, read-out: IC50 (concentration necessary to inhibit HGFR autophosphorylation activity by 50%). It is filed as cell-based. As to the method: Human gastric cancer cells (MKN-45) were suspended in a 1% FBS-containing RPMI1640 medium (purchased from Sigma). The cell suspension (1×10^5 cells/ml) was put in a 96-well plate for cell culture (purchased from NUNC, Production No. 167008) at 0.1 ml/well, and then cultured in a 5% CO2 incubator (37° C.) overnight. After the culture, from each well was removed the supernatant solution, followed by adding 0.05 ml of a 1% FBS-containing RPMI1640 medium. Then, the well was supplied with 0.05 ml of the test substance dissolved in dimethyl sulfoxide (diluted with a 1% FBS-containing RPMI1640 medium), followed by culturing in a 5% CO2 incubator (37° C.) for 1 hr. From each well was removed the supernatant, and each well was washed with 150 μl of PBS, followed by adding 100 μl of a lysis buffer (50 mM Hepes (pH 7.4), 150 mM NaCl, 10% (v/v) glycerol, 1% Triton X-100, 1.5 mM MgCl2, 1 mM EDTA (pH 8.0), 100 mM NaF, 1 mM PMSF, 10 μg/ml Aprotinin, 50 μg/ml Leupeptin, 1 μg/ml Pepstatin A and 1 mM Na3VO4). The plate was shaken at 4° C. for 1 hr to prepare the cell extract.
To a 96-well plate for ELISA (purchased from COSTAR, Production No. 3369) was added 50 μl of 60 mM bicarbonate buffer (pH 9.6) containing 50 μg/ml of an anti-phosphotyrosine antibody (PY20, purchased from Transduction Laboratory, Production No. P-11120). The plate was incubated at 4° C. overnight.
Each well of the plate prepared in 2. was washed three times with 200 μl of PBS, and supplied with 150 μl of 3% BSA/PBS, followed by incubating at room temperature for 2 hrs. Each well was washed three times with 200 μl of PBS, and supplied with 50 μl of the above cell extract, followed by incubating at 4° C. overnight. After the incubation, each well was washed three times with 250 μl of a washing solution (0.1% BSA, 20 mM Tris-HCl (pH 7.6), 137 mM NaCl, and 0.05% Tween-20), and supplied with 70 μl of anti-HGFR antibody (h-Met(C-12), purchased from Santa Cruz, Production No. sc-10) 2,000-fold diluted with a reaction solution (1% BSA, 20 mM Tris-HCl (pH 7.6), 137 mM NaCl and 0.05% Tween-20), followed by incubating at room temperature for 1 hr. The well was washed three times with 250 μl of the washing solution, and supplied with 70 μl of peroxidase-labelled anti-rabbit IgG antibody (purchased from Cell Signaling, Production No. 7074) 2,000-fold diluted with the reaction solution, followed by incubating at room temperature for 1 hr. Each well was washed three times with 250 μl of the washing solution, and supplied with 70 μl of TMB Membrane Peroxidase Substrate (purchased from Funakoshi, Production No. 50-5077-03), followed by incubating at room temperature for 10 min. Each well was supplied with 70 μl of 1 M phosphoric acid, and using the Plate Reader MTP-500 (Corona Electric), the absorbance of the well was instantly determined at a measurement wavelength of 450 nm. While defining the absorbance of a well supplied with the cell extract having no test substance as 100% HGFR autophosphorylation activity, and the absorbance of a well supplied with 50 μl of the lysis buffer as 0% HGFR autophosphorylation activity, the HGFR autophosphorylation activity (%) was calculated for each well. The concentration of the test substance was changed by several levels to calculate HGFR autophosphorylation activities (%) in respective cases, and to calculate the concentration (IC50) of the test substance necessary to inhibit HGFR autophosphorylation activity by 50%.
Background: In an ELISA, binding on a coated surface is turned into a signal by an enzyme label.

Take `CN(C)C(=O)Nc1cc(Oc2ccc(NC(=S)NC(=O)CC3CC4CCC3C4)cc2F)ccn1` (stereo not drawn) [Example 17, 2-[(Dimethylamino)carbonylamino]-4-{2-fluoro-4-[3-(2-norbornaneacetylthio)ureido]phenoxy}pyridine]: the IC50 is 570 nM in assay [1] and 120 nM at HGFR autophosphorylation.
For `O=C(Cc1ccc(F)cc1)NC(=S)Nc1ccc(Oc2ccnc(NC(=O)N3CCCC3)c2)cc1` [Example 9, Pyrrolidine-1-carboxylic acid [4-(4-{3-[2-(4-fluorophenyl)acetyl]thioureido}phenoxy)pyridin-2-yl]amide] the same measures were 33 nM and 20 nM.
For `O=C(Cc1ccccc1)NC(=O)Nc1ccc(Oc2ccnc(NC(=O)N3CCC(N4CCCC4)CC3)c2)c(F)c1` [Example 45, 4-{2-Fluoro-4-[3-(2-phenylacetyl)ureido]phenoxy}-2-{[4-(pyrrolidin-1-yl)piperidin-1-yl]carbonylamino}pyridine] the same measures were 140 nM and 350 nM.
